Data reported in US8293294B2, “Cosmetic composition comprising an aqueous extract of Chrysophyllum cainito” (Laboratories Clarins, priority 2008, dated 2012).

Tested on: CML (carboxymethyl adducts of lysine) induced by glyoxal
Assay: Inhibition of glyoxal-induced CML formation in cultured human dermal fibroblasts (immunofluorescence)
Type: cell-based
Details: aminoguanidine 10 mM, positive reference, fibroblasts with 200 μM glyoxal for 7 days
Description: It is a question of evaluating the inhibitory activity of the extract of Chrysophyllum cainito with respect to CML (carboxymethyl adducts of lysine) induced by glyoxal as well as its protective effect on vimentin, the target of formation of the CMLs, in a culture of human dermal fibroblasts.
Normal adult human fibroblasts were cultivated at 37° C. and 5% CO2 on a cover slip in a Petri dish of diameter 60 at a rate of 30000 cells per cover slip. The incubation medium is DMEM medium (Dulbecco modified Eagle medium) supplemented with 10% fetal calf serum and penicillin/streptomycin (50 μg/ml). […]
The cells were washed with PBS (phosphate-buffered saline) and permeabilized with 0.1% Triton X-100 for 10 minutes. […] Before taking the reading, 4 rinsings with PBS are performed.
The cover slips are mounted on the glass slide and then examined with the fluorescence microscope (Nikon Eclipse 50i). […] The photomicrographs are analyzed using Lucia image analysis software. The FITC fluorescence images indicate the regions of localization of vimentin. The TRITC fluorescence images indicate the regions of localization of CML. The DAPI fluorescence images indicate the cell nuclei and therefore the number of cells per field (see FIGS. 1 to 4).
This intensity of fluorescence is shown relative to the number of cells per micrograph. […]

With `N=C(N)NN` [Aminoguanidine] the “inhibition of the formation of carboxymethyl adducts of lysine (CML), intensity of labeling” value was “completely inhibits” and the “inhibition of the formation of carboxymethyl adducts of lysine (CML), intensity of labeling” value (listed as aminoguanidine) was “completely inhibited”.
